Laboratory results reported in patent US20240124445A1, “BENZENE RING COMPOUND AND USE THEREOF” (NANJING SHIJIANG MEDICINE TECHNOLOGY CO., LTD, priority 2020, published 2024).
Like-named read-outs stand apart in the source and are kept apart here.

Tests used:
NCI-H82 cell = assay: Cell viability (Promega CellTiter-Glo) of NCI-H82 cell; type: cell-based; details: Homo sapiens
Description: Cell viability was detected using the Promega CellTiter-Glo kit, the kit reflected cell viability by directly measuring intracellular ATP content. Small cell lung cancer cell NCI-H82 (ATCC, No. HTB-175) was cultured in 10% fetal bovine serum-containing RPMI1640 medium (+P/S).
(§1) Cell viability was detected using the Promega CellTiter-Glo kit, the kit reflected cell viability by directly measuring intracellular ATP content.
(§2) Daoy cell was cultured in 10% fetal bovine serum-containing DMEM medium (+P/S), and NCI-H82 cell was cultured in 10% fetal bovine serum-containing RPMI1640 medium (+P/S).
Cell viability was detected using the Promega CellTiter-Glo kit, the kit reflected cell viability by directly measuring intracellular ATP content. In the experiment, the IC50 value of different compounds on different tumor cell lines was detected to determine cell lines that were sensitive or insensitive to different compounds.
Tumor cells were cultured in 10% FBS-containing medium (+p/s), and incubated for 3 h or the following day, then the gradient diluted compound was added. After 3 days of culture, the relevant IC50 (50% inhibiting concentration) was measured. The name, source and culture conditions of each tumor cell line were as follows:
Cell line NCI-H82 (ATCC, No. HTB-175) was cultured in 10% fetal bovine serum-containing RPMI1640 medium (+P/S).

[1] = Stability in human liver microsome; type: in vitro ADME; details: liver microsomes, pH 7.4, 1.5 μM drug solution, NADPH, 37° C., read-out: Human T1/2
Description: Vortexing for 10 min, the sample was centrifuged with 5594×g for 15 min in centrifuger (Thermo Multifuge×3R). • 10) taking 50 μL supernatant from the centrifuged sample, transferred to 96 well sample plate contain 50 μL water, mixed, and the sample was analyzed using LC-MS/MS.

Daoy cell = assay: Cell viability (CellTiter-Glo) of Daoy cell with or without CsA; type: cell-based; details: Homo sapiens
Description: as §1, §2

[2] = NCI-H82 cell, Table 1, read-out: IC50
[3] = NCI-H82, read-out: IC50 NCI-H82 cell without CsA
[4] = read-out: IC50 Daoy cell with CsA
[5] = read-out: IC50 Daoy cell without CsA

Compound	IC50 (NCI-H82 cell; [2]) [nM]	other results
O=C(C[n+]1ccc(NCc2ccccc2)cc1)c1ccccc1 [AB24807A]	540	half-life at 1 µM [1]: 3.31 h
O=C(C[n+]1ccc2c(c1)CCCC(c1ccccc1)N2)c1ccc(Cl)cc1 (stereo not drawn) [AB24839]	990	half-life at 1 µM [1]: 11.2 h
O=C1c2ccc(Cl)cc2CC1[n+]1ccc(NCc2ccccc2)cc1 (stereo not drawn) [AB24840A]	2590	half-life at 1 µM [1]: 2.33 h
O=C1c2ccc(F)cc2CCC1[n+]1ccc(NCc2ccccc2)cc1 (stereo not drawn) [AB24949]	680	–
COc1cccc2c1CCC([n+]1ccc(NCc3ccccc3)cc1)C2=O (stereo not drawn) [AB24954]	390	–
Cc1ccc(C(=O)C[n+]2ccc(N(C)Cc3ccccc3)cc2)cc1 [AB24955]	2800	–
Cc1ccc(C(=O)C[n+]2ccc(N3Cc4ccccc4C3)cc2)cc1 [AB24956]	770	–
Cc1ccc(C(=O)C[n+]2ccc(N3CCc4ccccc4C3)cc2)cc1 [AB24957]	1060	–
Cc1ccc(C(=O)C[n+]2ccc(N3CCc4ccccc4C3=O)cc2)cc1 [AB24959]	4110	–
Cc1ccc2c(c1)CCC([n+]1ccc(NCc3ccccc3)nc1)C2=O (stereo not drawn) [AB24961]	540	–
COc1ccc(C(=O)C[n+]2ccc(NCc3ccccc3)nc2)cc1 [AB24963]	330	–
O=C(C[n+]1ccc(NCc2ccccc2)nc1)c1ccc(-c2ccccc2)cc1 [AB24964]	1090	half-life at 1 µM [1]: 3.6 h
O=C(C[n+]1ccc(NCc2ccccc2)nc1)c1cccc(OC(F)(F)F)c1 [AB24967]	3880	–
Nc1cccc(C(=O)C[n+]2ccc(NCc3ccccc3)cc2)c1 [AB24983]	3400	–
O=C(C[n+]1ccc2c(ccn2Cc2ccccc2)c1)c1ccc(C(F)(F)F)cc1 [AB24987]	2000	–
O=C(C[n+]1ccc2c(ccn2Cc2ccccc2)c1)c1ccc(OC(F)(F)F)cc1 [AB24988]	920	–
O=C(C[n+]1ccc2c(ccn2Cc2ccccc2)c1)c1cccc(Cl)c1 [AB24991]	340	–

Compound	IC50 (NCI-H82 cell; [2]) [nM]	other results
O=C1c2ccc(C(F)(F)F)cc2CCC1[n+]1ccc2c(ccn2Cc2ccccc2)c1 (stereo not drawn) [AB24996]	1350	–
O=C(C[n+]1ccc2c(c1)CC(c1ccccc1)N2)c1ccc(OC(F)(F)F)cc1 (stereo not drawn) [AB24999]	1300	–
O=C1c2ccc(C(F)(F)F)cc2CCC1[n+]1ccc2c(c1)CCC(c1ccccc1)N2 (stereo not drawn) [AB27104]	720	–
O=C(C[n+]1ccc2c(Cc3ccccc3)c[nH]c2c1)c1ccc(C(F)(F)F)cc1 [AB27106]	1620	–
O=C(C[n+]1ccc2c(Cc3ccccc3)c[nH]c2c1)c1ccc(OC(F)(F)F)cc1 [AB27107]	2180	–
O=C1c2ccc(OC(F)(F)F)cc2CCC1[n+]1ccc(NCc2ccccc2)cc1 (stereo not drawn) [AB27111]	850	–
O=C(C[n+]1ccc2[nH]c(Cc3ccccc3)cc2c1)c1ccc(C(F)(F)F)cc1 [AB27114]	3930	–
Cc1ccc(Cc2c[nH]c3c[n+](CC(=O)c4ccc(C(F)(F)F)cc4)ccc23)cc1 [AB27118]	1720	–
O=C1c2cc(Cl)ccc2CCC1[n+]1ccc2c(c1)CCC(c1ccccc1)N2 (stereo not drawn) [AB27130]	770	IC50 (NCI-H82 cell; [3]): 770 nM; IC50 (Daoy cell; [4]): 310 nM; IC50 (Daoy cell; [5]): 5500 nM; half-life at 1 µM [1]: 5.96 h
O=C1c2cc(C(F)(F)F)ccc2CCC1[n+]1ccc2c(c1)CCC(c1ccccc1)N2 (stereo not drawn) [AB27131]	440	IC50 (NCI-H82 cell; [3]): 440 nM; IC50 (Daoy cell; [4]): 710 nM; IC50 (Daoy cell; [5]): 4750 nM; half-life at 1 µM [1]: 6.81 h
Cc1ccc2c(c1)C(=O)C([n+]1ccc3c(c1)CCC(c1ccccc1)N3)CC2 (stereo not drawn) [AB27133]	340	–
Cn1ccc2c[n+](C3CCc4ccc(C(F)(F)F)cc4C3=O)ccc21 (stereo not drawn) [AB27148]	2810	–
CCn1ccc2c[n+](C3CCc4ccc(C(F)(F)F)cc4C3=O)ccc21 (stereo not drawn) [AB27149]	1980	–
Cn1ccc2c[n+](C3CCc4ccc(OC(F)(F)F)cc4C3=O)ccc21 (stereo not drawn) [AB27154]	870	–
CCn1ccc2c[n+](C3CCc4ccc(OC(F)(F)F)cc4C3=O)ccc21 (stereo not drawn) [AB27155]	650	–
O=C1c2cc(OC(F)(F)F)ccc2CCC1[n+]1ccc2c(ccn2C2CC2)c1 (stereo not drawn) [AB27158]	550	–
CC(c1ccccc1)n1ccc2c[n+](C3CCc4ccc(Cl)cc4C3=O)ccc21 (stereo not drawn) [AB27165]	410	–

Molecules with a lower IC50 (NCI-H82 cell; [2]), results first:

IC50 (NCI-H82 cell; [2]) [nM]	Compound	other results
320	Cc1ccc(C(=O)C[n+]2ccc(NCc3ccccc3)c(C)c2)cc1 [AB27169]	–
280	CC(c1ccccc1)n1ccc2c[n+](C3CCc4ccc(C(F)(F)F)cc4C3=O)ccc21 (stereo not drawn) [AB27161]	–
260	Cc1cc2c[n+](C3CCc4ccc(Cl)cc4C3=O)ccc2n1Cc1ccccc1 (stereo not drawn) [AB27129]	–
260	O=C1c2cc(OC(F)(F)F)ccc2CCC1[n+]1ccc(NCc2ccccc2)cc1 (stereo not drawn) [AB27156]	IC50 (NCI-H82 cell; [3]): 260 nM; IC50 (Daoy cell; [4]): 240 nM; IC50 (Daoy cell; [5]): 1050 nM; half-life at 1 µM [1]: 17.5 h
250	CCCn1ccc2c[n+](C3CCc4ccc(OC(F)(F)F)cc4C3=O)ccc21 (stereo not drawn) [AB27145]	–
240	CC(c1ccccc1)n1ccc2c[n+](C3CCc4ccc(OC(F)(F)F)cc4C3=O)ccc21 (stereo not drawn) [AB27162]	–
230	Cc1ccc2c(c1)CCC([n+]1ccc3c(ccn3C(C)c3ccccc3)c1)C2=O (stereo not drawn) [AB27184]	–
180	O=C1c2cc(Cl)ccc2CCC1[n+]1ccc(NCc2ccccc2)cc1 (stereo not drawn) [AB24913]	half-life at 1 µM [1]: 7.97 h
160	O=C1c2cc(C(F)(F)F)ccc2CCC1[n+]1ccc(NCc2ccccc2)cc1 (stereo not drawn) [AB27144]	IC50 (NCI-H82 cell; [3]): 160 nM; IC50 (Daoy cell; [4]): 210 nM; IC50 (Daoy cell; [5]): 1020 nM; half-life at 1 µM [1]: 75.2 h
160	CC(=O)N(Cc1ccccc1)c1cc[n+](CC(=O)c2ccc(C)cc2)cc1 [AB27166]	–
150	O=C1c2cc(OC(F)(F)F)ccc2CCC1[n+]1ccc2c(ccn2Cc2ccccc2)c1 (stereo not drawn) [AB27126]	IC50 (NCI-H82 cell; [3]): 150 nM; IC50 (Daoy cell; [4]): 280 nM; IC50 (Daoy cell; [5]): 1950 nM; half-life at 1 µM [1]: 20.8 h
150	Cc1ccc2c(c1)C(=O)C([n+]1ccc3c(ccn3C(C)c3ccccc3)c1)CC2 (stereo not drawn) [AB27163]	–
110	O=C1c2cc(C(F)(F)F)ccc2CCC1[n+]1ccc2c(ccn2Cc2ccccc2)c1 (stereo not drawn) [AB27125]	IC50 (NCI-H82 cell; [3]): 110 nM; IC50 (Daoy cell; [4]): 190 nM; IC50 (Daoy cell; [5]): 1460 nM; half-life at 1 µM [1]: 14.2 h
100	Cc1cn(Cc2ccccc2)c2cc[n+](C3CCc4ccc(C(F)(F)F)cc4C3=O)cc12 (stereo not drawn) [AB27174]	–
60	Cc1cn(Cc2ccccc2)c2cc[n+](C3CCc4ccc(Cl)cc4C3=O)cc12 (stereo not drawn) [AB27142]	half-life at 1 µM [1]: 12.4 h
40	Cc1ccc2c(c1)C(=O)C([n+]1ccc3c(c1)c(C)cn3Cc1ccccc1)CC2 (stereo not drawn) [AB27176]	–
30	O=C1c2cc(Cl)ccc2CCC1[n+]1ccc2c(ccn2Cc2ccccc2)c1 (stereo not drawn) [AB27124]	half-life at 1 µM [1]: 1.77 h
10	CC(c1ccccc1)[n+]1ccc2c(ccn2C2CCc3ccc(Cl)cc3C2=O)c1 (stereo not drawn) [AB27141]	IC50 (NCI-H82 cell; [3]): 10 nM; IC50 (Daoy cell; [4]): 28 nM; IC50 (Daoy cell; [5]): > 1000 nM; half-life at 1 µM [1]: 4.85 h
